Data taken from patent US20240376091A1, “THIADIAZOLEAMIDE DERIVATIVES AND THEIR APPLICATIONS” (ZHEJIANG UNIVERSITY, priority 2021, published 2024).

Tests used:
[1] = molecular target: T1, AR (Homo sapiens, UniProt P10275, T878A); experiment: AR transcriptional activity, LNCaP-ARR2PB-eGFP reporter cells; type: cell-based; conditions: read-out: IC50 AR transcriptional activities
T1 construct: into the androgen-dependent PCa cells (LNCaP); endogenous in cells; host or cells: LNCaP-ARR2PB-eGFP
T1 sequence (P10275 1-920 T878A): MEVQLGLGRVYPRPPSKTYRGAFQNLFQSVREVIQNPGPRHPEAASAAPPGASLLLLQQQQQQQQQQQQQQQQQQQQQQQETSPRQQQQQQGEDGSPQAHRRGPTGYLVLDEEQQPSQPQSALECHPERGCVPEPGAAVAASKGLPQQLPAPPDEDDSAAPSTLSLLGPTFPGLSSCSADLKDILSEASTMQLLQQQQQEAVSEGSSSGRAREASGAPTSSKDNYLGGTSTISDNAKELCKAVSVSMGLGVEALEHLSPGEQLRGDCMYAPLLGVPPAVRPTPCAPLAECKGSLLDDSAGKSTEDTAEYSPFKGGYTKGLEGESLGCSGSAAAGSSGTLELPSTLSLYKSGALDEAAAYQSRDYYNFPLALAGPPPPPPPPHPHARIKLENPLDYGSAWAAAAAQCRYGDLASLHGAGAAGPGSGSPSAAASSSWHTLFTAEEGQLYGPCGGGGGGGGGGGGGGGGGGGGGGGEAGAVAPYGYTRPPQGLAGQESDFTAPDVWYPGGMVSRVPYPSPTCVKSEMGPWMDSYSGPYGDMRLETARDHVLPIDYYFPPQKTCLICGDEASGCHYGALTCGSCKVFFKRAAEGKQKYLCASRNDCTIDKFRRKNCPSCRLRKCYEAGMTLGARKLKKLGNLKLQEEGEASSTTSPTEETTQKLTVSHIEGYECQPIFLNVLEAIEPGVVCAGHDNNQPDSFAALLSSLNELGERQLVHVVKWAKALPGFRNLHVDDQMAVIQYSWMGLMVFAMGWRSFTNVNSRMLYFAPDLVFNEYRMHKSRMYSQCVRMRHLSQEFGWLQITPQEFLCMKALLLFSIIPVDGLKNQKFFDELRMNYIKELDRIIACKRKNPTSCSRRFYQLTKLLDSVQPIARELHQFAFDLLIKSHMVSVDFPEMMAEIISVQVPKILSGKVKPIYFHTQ
Text: Detection principles: We conducted a stable transfection of promoter ARR2PB known for its strong AR responsiveness, into the androgen-dependent PCa cells (LNCaP). The expression of enhanced green fluorescent protein (eGFP) is depending on the degree of activation of AR. Therefore, LNCaP-ARR2PB-eGFP cell line could quantitatively determine the AR antagonistic activities of the compounds by evaluating the expression of eGFP.

[2] = tested on: LNCaP xenograft; experiment: LNCaP xenograft model in vivo; conditions: intratumor injection 2.5 mg/kg/week
Protocol: Methods: LNCaP cells were injected to the Male CB17 SCID mice (6-8 weeks old). Once tumor size reached target value, the mice were randomized into three groups with 6-8 mice per group. […] The mice weight and tumor volume were periodically recorded. Finally, the tumors were harvested.

| Compound | IC50 [1] [µM] | body weight [2] |
| --- | --- | --- |
| Cc1oc(C(=O)Nc2nc(CC(C)O)ns2)cc1-c1cccc(C(F)(F)F)c1 (stereo not drawn) [Compound F-11, N-(3-(2-hydroxypropyl)-1,2,4-thiadiazol-5-yl)-5-methyl-4-(3-(trifluoromethyl)phenyl) furan-2-carboxamide] | 22.3 | – |
| Cc1oc(C(=O)Nc2nc(CC(C)(O)C(F)(F)F)ns2)cc1-c1cccc(C(F)(F)F)c1 (stereo not drawn) [Compound F-13, 5-Methyl-N-(3-(3,3,3-trifluoro-2-hydroxy-2-methylpropyl)-1,2,4-thiadiazol-5-yl)-4-(3-(tri-fluoromethyl)phenyl)furan-2-carboxamide] | 31.5 | – |
| COc1cccc(-c2cc(C(=O)Nc3nc(CC(C)=C(F)F)ns3)oc2C)c1 [Compound F-15, N-(3-(3,3-difluoro-2-methylallyl)-1,2,4-thiadiazol-5-yl)-4-(3-methoxyphenyl)-5-methyl-furan-2-carboxamide] | 35.9 | – |
| Cc1oc(C(=O)Nc2nc(CC(C)(F)F)ns2)cc1-c1cccc(OC(F)(F)F)c1 [Compound F-17, N-(3-(2,2-difluoropropyl)-1,2,4-thiadiazol-5-yl)-5-methyl-4-(3-(trifluoromethoxy)phenyl)furan-2-carboxamide] | 25 | – |
| Cc1oc(C(=O)Nc2nc(CN3CCCC3)ns2)cc1-c1cccc(C(F)(F)F)c1 [Compound F-24, 5-Methyl-N-(3-(pyrrolidin-1-ylmethyl)-1,2,4-thiadiazol-5-yl)-4-(3-(trifluoromethyl)phenyl)furan-2-carboxamide] | 35.2 | – |
| COc1cccc(-c2cc(C(=O)Nc3nc(CN4CCOCC4)ns3)oc2C)c1 [Compound F-26, 4-(3-Methoxyphenyl)-5-methyl-N-(3-(morpholinomethyl)-1,2,4-thiadiazol-5-yl)furan-2-carboxamide] | 31.9 | – |
| CC(=O)Cc1nsc(NC(=O)c2cc(-c3cccc(C#N)c3)co2)n1 [Compound G-2, 4-(3-Cyanophenyl)-N-(3-(2-oxopropyl)-1,2,4-thiadiazol-5-yl)furan-2-carboxamide] | 35.5 | – |
| COc1cccc(-c2coc(C(=O)Nc3nc(CC(C)=O)ns3)c2)c1 [Compound G-3, 4-(3-Methoxyphenyl)-N-(3-(2-oxopropyl)-1,2,4-thiadiazol-5-yl)furan-2-carboxamide] | 33.6 | – |
| CC(=O)Cc1nsc(NC(=O)c2cc(-c3cccc(OC(F)F)c3)co2)n1 [Compound G-5, 4-(3-(Difluoromethoxy)phenyl)-N-(3-(2-oxopropyl)-1,2,4-thiadiazol-5-yl)furan-2-carboxamide] | 32.7 | – |
| CC(Cc1nsc(NC(=O)c2cc(-c3cccc(C#N)c3)co2)n1)N1CCCCC1 (stereo not drawn) [Compound G-7, 4-(3-Cyanophenyl)-N-(3-(2-(piperidin-1-yl)propyl)-1,2,4-thiadiazol-5-yl)furan-2-carboxamide] | 23.2 | – |
| CC(Cc1nsc(NC(=O)c2cc(-c3cccc(OC(F)(F)F)c3)co2)n1)N1CCN(C)CC1 (stereo not drawn) [Compound G-9, N-(3-(2-(4-methylpiperazin-1-yl)propyl)-1,2,4-thiadiazol-5-yl)-4-(3-(trifluoromethoxy)phenyl)furan-2-carboxamide] | 47.2 | – |
| CC(O)Cc1nsc(NC(=O)c2cc(-c3cccc(C(F)(F)F)c3)co2)n1 (stereo not drawn) [Compound G-11, N-(3-(2-hydroxypropyl)-1,2,4-thiadiazol-5-yl)-4-(3-(trifluoromethyl)phenyl)furan-2-carboxamide] | 29.3 | – |
| COc1cccc(-c2coc(C(=O)Nc3nc(CC(C)=C(F)F)ns3)c2)c1 [Compound G-15, N-(3-(3,3-difluoro-2-methylallyl)-1,2,4-thiadiazol-5-yl)-4-(3-methoxyphenyl)furan-2-carboxamide] | 24.1 | – |
| CC(F)(F)Cc1nsc(NC(=O)c2cc(-c3cccc(OC(F)(F)F)c3)co2)n1 [Compound G-17, N-(3-(2,2-difluoropropyl)-1,2,4-thiadiazol-5-yl)-4-(3-(trifluoromethoxy)phenyl)furan-2-carboxamide] | 23 | – |
| O=C(Nc1nc(CCl)ns1)c1cc(-c2cccc(C(F)(F)F)c2)co1 [Compound G-19, N-(3-(chloromethyl)-1,2,4-thiadiazol-5-yl)-4-(3-(trifluoromethyl)phenyl)furan-2-carboxamide] | 31.4 | – |
| O=C(Nc1nc(CN2CCCC2)ns1)c1cc(-c2cccc(C(F)(F)F)c2)co1 [Compound G-24, N-(3-(pyrrolidin-1-ylmethyl)-1,2,4-thiadiazol-5-yl)-4-(3-(trifluoromethyl)phenyl)furan-2-carboxamide] | 24.2 | – |
| COc1cccc(-c2coc(C(=O)Nc3nc(CN4CCOCC4)ns3)c2)c1 [Compound G-26, 4-(3-Methoxyphenyl)-N-(3-(morpholinomethyl)-1,2,4-thiadiazol-5-yl)furan-2-carboxamide] | 27.1 | – |
| CN1CCN(Cc2nsc(NC(=O)c3cc(-c4cccc(OC(F)(F)F)c4)co3)n2)CC1 [Compound G-27] | 26.2 | – |
| CN1CCN(Cc2nsc(NC(=O)c3cc(-c4cccc(OC(F)F)c4)co3)n2)CC1 [Compound G-28, 4-(3-(Difluoromethoxy)phenyl)-N-(3-((4-methylpiperazin-1-yl)methyl)-1,2,4-thiadiazol-5-yl)furan-2-carboxamide] | 39.2 | – |
| CNC(=O)c1ccc(N2C(=S)N(c3ccc(C#N)c(C(F)(F)F)c3)C(=O)C2(C)C)cc1F [Enzalutamide, reference compound] | – | no significant loss of body weight |

The remaining compounds from weak to strong by IC50 [1], led by results:

| IC50 [1] [µM] | Compound | body weight [2] |
| --- | --- | --- |
| 22 | CC(O)(Cc1nsc(NC(=O)c2cc(-c3cccc(C#N)c3)co2)n1)C(F)(F)F (stereo not drawn) [Compound G-13, 4-(3-Cyanophenyl)-N-(3-(3,3,3-trifluoro-2-hydroxy-2-methylpropyl)-1,2,4-thiadiazol-5-yl) furan-2-carboxamide] | – |
| 19.8 | N#Cc1cccc(-c2coc(C(=O)Nc3nc(CN4CCCCC4)ns3)c2)c1 [Compound G-25, 4-(3-Cyanophenyl)-N-(3-(piperidin-1-ylmethyl)-1,2,4-thiadiazol-5-yl)furan-2-carboxamide] | – |
| 19.2 | COc1cccc(-c2coc(C(=O)Nc3nc(CC(C)N4CCOCC4)ns3)c2)c1 (stereo not drawn) [Compound G-8, 4-(3-Methoxyphenyl)-N-(3-(2-morpholinopropyl)-1,2,4-thiadiazol-5-yl)furan-2-carboxamide] | – |
| 19.1 | Cc1oc(C(=O)Nc2nc(CCl)ns2)cc1-c1cccc(C(F)(F)F)c1 [Compound F-19, N-(3-(chloromethyl)-1,2,4-thiadiazol-5-yl)-5-methyl-4-(3-(trifluoromethyl)phenyl)furan-2-carboxamide] | – |
| 16.4 | Cc1oc(C(=O)Nc2nc(CN3CCN(C)CC3)ns2)cc1-c1cccc(OC(F)F)c1 [Compound F-28, 4-(3-(Difluoromethoxy)phenyl)-5-methyl-N-(3-((4-methylpiperazin-1-yl)methyl)-1,2,4-thiadiazol-5-yl)furan-2-carboxamide] | – |
| 15.6 | Cc1oc(C(=O)Nc2nc(CN3CCOCC3)ns2)cc1-c1cccc(OC(F)(F)F)c1 [Compound F-27, 5-Methyl-N-(3-(morpholinomethyl)-1,2,4-thiadiazol-5-yl)-4-(3-(trifluoromethoxy)phenyl)furan-2-carboxamide] | – |
| 15.5 | Cc1oc(C(=O)Nc2nc(CN3CCCCC3)ns2)cc1-c1cccc(C#N)c1 [Compound F-25, 4-(3-Cyanophenyl)-5-methyl-N-(3-(piperidin-1-ylmethyl)-1,2,4-thiadiazol-5-yl)furan-2-carboxamide] | – |
| 15.3 | CC(Cc1nsc(NC(=O)c2cc(-c3cccc(OC(F)F)c3)co2)n1)N1CCN(C)CC1 (stereo not drawn) [Compound G-10, 4-(3-(Difluoromethoxy)phenyl)-N-(3-(2-(4-methylpiperazin-1-yl)propyl)-1,2,4-thiadiazol-5-yl)furan-2-carboxamide] | – |
| 13.9 | CC(Cc1nsc(NC(=O)c2cc(-c3cccc(C(F)(F)F)c3)co2)n1)N1CCCC1 (stereo not drawn) [Compound G-6, N-(3-(2-(pyrrolidin-1-yl)propyl)-1,2,4-thiadiazol-5-yl)-4-(3-(trifluoromethyl)phenyl) furan-2-carboxamide] | – |
| 11.6 | CC(=O)Cc1nsc(NC(=O)c2cc(-c3cccc(OC(F)(F)F)c3)co2)n1 [Compound G-4, N-(3-(2-oxopropyl)-1,2,4-thiadiazol-5-yl)-4-(3-(trifluoromethoxy)phenyl)furan-2-carboxamide] | – |
